Laboratory results published in patent US12410153B2, “Compounds, compositions and methods” (Avalo Therapeutics, Inc., priority 2014, dated 2025).
Where two headings read alike, the source gives them in different places.

Key:
[1] = Polymorph stability (slurry and heating, XRPD); assay type: physicochemical; settings: between room temperature and 121° C.
Procedure: Crystalline Form II of Compound (I) was characterized using X-ray powder diffraction (XRPD) (FIG. 1A). The XRPD pattern corresponds to an anhydrous form denoted as Form II, which is highly crystalline. In addition to Form II, Compound (I) can exist as another anhydrous polymorph, denoted as Form I. The XRPD patterns of these phases are shown in FIG. 1B. A slurry experiment was performed at room temperature by adding approximately equal proportions of the two anhydrous phases to methyl-tert-butyl ether.

[2] = Single-dose pharmacokinetics in rats (oral and IV); assay type: in vivo; settings: male, Sprague-Dawley, rat, plasma
Procedure: Male Sprague-Dawley rats (N=8; N=4 oral and N=4 intravenous [IV]) weighing approximately 250-280 g and male rhesus monkeys (N=4, crossover) weighing 6.0-8.8 kg were used for the PK studies. In rats, the IV dose of crystalline Form II of Compound (I) at 2 mg/kg (0.4 mL/kg) was administered as a bolus and the oral dose was administered by gavage at 15 mg/kg (5 mL/kg). In monkeys, the IV dose of Form II at 2 mg/kg (0.1 mL/kg) was administered as a slow bolus and the oral dose was administered via nasogastric tube at 15 mg/kg (5 mL/kg). Blood samples were serially collected pre-dose, and at 0.083 (IV only), 0.25, 0.50, 1, 2, 4, 6, 8, 10, 24, 48, 72, and 96 h post-dose. The concentrations of Form II in rat and monkey plasma were determined by LC/MS/MS analysis in the positive ion mode using a heated nebulizer interface. The lower limit of quantitation was 2.5 ng/mL (approximately 0.00697 μM).

[3] = tested on: systemic blood pressure and heart rate; experiment: Blood pressure profile in chronically instrumented (telemetered) rats; assay type: in vivo, rat; settings: for DAP change / PP change / SAP change / Activity change / HR change / MAP change: 1 hour post dose, vehicle subtracted, mean ± SEM; for Activity change / HR change / MAP change: listed as crystalline Form II of Compound (I)
Procedure: A single oral gavage dose was administered (volume: 5 mL/kg). […] Following the completion of the Latin square, two additional dose concentrations were evaluated (0.6 and 10 mg/kg, n=3 per group).
All IV doses were administered in manually restrained rats via tail vena-puncture. It should be noted that vehicle controls were also administered.
A 24-hour recording was performed prior to dosing (vehicle alone) and after each oral dose.

[4] = Human pharmacokinetic study, single ascending oral doses; assay type: in vivo; settings: for AUC(0-inf) / AUC(0-t) / Cmax / Tmax / half-life: male, human, plasma, oral
Procedure: Twenty-four healthy, young male subjects were assigned to 1 of 3 sequential treatment panels (A, B, and C). For each panel of 8 subjects, 2 subjects received placebo and 6 subjects were administered single ascending oral doses of crystalline Form II of Compound (I) with a minimum 7-day washout between each dose: Panel A (0.1, 0.2, 0.5, 1, and 2 mg); Panel B (2, 4, 8, and 15 mg, and 4 mg with food); and Panel C (15 and 20 mg). Blood samples were collected pre-dose and 0.5, 1, 1.5, 2, 3, 4, 6, 9, 12, 18, 24, 30, 48, and 72 h post dose. Plasma samples were analyzed for Form II concentrations using reversed phase high performance liquid chromatography with tandem mass spectrometric detection (Merck Research Laboratories). The analytical range was 0.5 to 500 nM (0.180 to 180 ng/mL).

rats = experiment: Respiratory effects in male rats, single oral doses; assay type: in vivo, rat
Procedure: Respiratory effects were investigated in rats and dogs. […] Mean Form II plasma concentration was approximately 30 μM (10600 ng/mL) at the end of infusion and approximately 4 μM (1250 ng/mL) at 60 min post-infusion.

[5] = 1 mg/kg PO in β1 AR blocked animals (atenolol 1 mg/kg), 1 hour post dosing

With `Cc1ccc(COC(=O)N2CC[C@H](CNc3ncccn3)[C@H](F)C2)cc1` [Form II, 4-methylbenzyl (3S, 4R)-3-fluoro-4-[(pyrimidin-2-ylamino)methyl] piperidine-1-carboxylate] the “thermodynamic stability of polymorph” value [1] was “thermodynamically stable form”, the bioavailability ([2]; 15 mg/kg, dose-normalized AUC0-∞ after IV and PO, non-crossover) was 60% and the AUC(0-inf) ([2]; IV 2 mg/kg, mean (S.D.)) was 3.31 µM·h. It also gave a half-life ([2]; IV 2 mg/kg, mean (S.D.)) of 1.7 h, a clearance ([2]; IV 2 mg/kg, mean (S.D.), read-out: CLp) of 28.4 mL/min/kg and a Vd ([2]; IV 2 mg/kg, mean (S.D.), read-out: Vdss) of 3.1 L/kg. It also gave an AUC(0-inf) ([2]; PO 15 mg/kg, mean (S.D.)) of 14.9 µM·h, a Cmax ([2]; PO 15 mg/kg, mean (S.D.)) of 5.9 µM and a DAP change ([3]; 0.3 mg/kg PO) of 4.1 ± 0.9 mmHg. It also gave a PP change ([3]; 0.3 mg/kg PO) of 0.1 ± 1.0 mmHg, an SAP change ([3]; 0.3 mg/kg PO) of 4.3 ± 1.2 mmHg and an Activity change ([3]; 0.3 mg/kg PO) of 0.012±0.025 arbitrary unit. It also gave an HR change ([3]; 0.3 mg/kg PO) of 15±10 bpm, an MAP change ([3]; 0.3 mg/kg PO) of 4.2±0.9 mmHg and a DAP change ([3]; 0.6 mg/kg PO) of 7.8 ± 1.1 mmHg. It also gave a PP change ([3]; 0.6 mg/kg PO) of −1.5 ± 1.4 mmHg, an SAP change ([3]; 0.6 mg/kg PO) of 6.3 ± 1.6 mmHg and an Activity change ([3]; 0.6 mg/kg PO) of 0.003±0.033 arbitrary unit. For the same compound, the HR change ([3]; 0.6 mg/kg PO) was 10±15 bpm, the MAP change ([3]; 0.6 mg/kg PO) was 6.8±1.2 mmHg and the “MAP increase with dosing” value ([3]; 1 mg/kg PO in the setting of α1 AR blockade (prazosin 200 μg/kg)) was 11.3±2.0 mmHg. The “HR change vs pre-blockade baseline” value ([3]; 1 mg/kg PO in the setting of α1 AR blockade (prazosin 200 μg/kg), 1 hour post dosing) was 118±20 bpm, the HR increase post-dosing ([3]; 1 mg/kg PO in β1 AR blocked animals (atenolol 1 mg/kg)) was 53±17 bpm and the “HR change vs pre-blockade baseline” value [3, 5] was −7±17 bpm. For the same compound, the “MAP change vs pre-blockade baseline” value [3, 5] was 5.8±4.8 mmHg, the DAP change ([3]; 1.0 mg/kg PO) was 15.2 ± 3.0 mmHg and the PP change ([3]; 1.0 mg/kg PO) was 1.4 ± 1.1 mmHg. The SAP change ([3]; 1.0 mg/kg PO) was 16.8 ± 3.7 mmHg, the Activity change ([3]; 1.0 mg/kg PO) was 0.049±0.037 arbitrary unit and the HR change ([3]; 1.0 mg/kg PO) was 34±13 bpm. The MAP change ([3]; 1.0 mg/kg PO) was 15.7±3.2 mmHg, the DAP change ([3]; 3.0 mg/kg PO) was 15.0 ± 2.0 mmHg and the PP change ([3]; 3.0 mg/kg PO) was 4.0 ± 0.9 mmHg. For the same compound, the SAP change ([3]; 3.0 mg/kg PO) was 19.2 ± 2.4 mmHg, the Activity change ([3]; 3.0 mg/kg PO) was 0.174±0.048 arbitrary unit and the HR change ([3]; 3.0 mg/kg PO) was 66±9 bpm. The MAP change ([3]; 3.0 mg/kg PO) was 17.1±2.3 mmHg, the DAP change ([3]; 10 mg/kg PO) was 17.3 ± 1.9 mmHg and the PP change ([3]; 10 mg/kg PO) was 3.1 ± 1.3 mmHg. For the same compound, the SAP change ([3]; 10 mg/kg PO) was 20.7 ± 2.4 mmHg, the Activity change ([3]; 10 mg/kg PO) was 0.232±0.057 arbitrary unit and the HR change ([3]; 10 mg/kg PO) was 71±25 bpm. For the same compound, the MAP change ([3]; 10 mg/kg PO) was 19.1±2.4 mmHg, the “decrease in Cmax, fed vs fasted” value ([4]; 4 mg) was ~56% and the “delay in Tmax, fed vs fasted” value ([4]; 4 mg) was ~1 h. For the same compound, the “overall extent of absorption (AUC), fed vs fasted” value ([4]; 4 mg) was “not affected”, the AUC(0-inf) ([4]; 2 mg, fasted, mean) was 493 ng·h/mL and the AUC(0-t) ([4]; 2 mg, fasted, mean) was 398 ng·h/mL. The Cmax ([4]; 2 mg, fasted, mean) was 51.5 ng/mL, the Tmax ([4]; 2 mg, fasted, mean, read-out: Tmax) was 1.08 h and the half-life ([4]; 2 mg, fasted, mean, read-out: t1/2 (converted)) was 16.1 h. For the same compound, the AUC(0-inf) ([4]; 4 mg, 4 mg (fed), mean) was 1140 ng·h/mL, the AUC(0-t) ([4]; 4 mg, 4 mg (fed), mean) was 1080 ng·h/mL and the Cmax ([4]; 4 mg, 4 mg (fed), mean) was 80 ng/mL. The Tmax ([4]; 4 mg, 4 mg (fed), mean, read-out: Tmax) was 2 h, the half-life ([4]; 4 mg, 4 mg (fed), mean, read-out: t1/2 (converted)) was 17.3 h and the AUC(0-inf) ([4]; 4 mg, fasted, mean) was 1110 ng·h/mL. It also gave an AUC(0-t) ([4]; 4 mg, fasted, mean) of 1060 ng·h/mL, a Cmax ([4]; 4 mg, fasted, mean) of 141 ng/mL and a Tmax ([4]; 4 mg, fasted, mean, read-out: Tmax) of 0.67 h. The half-life ([4]; 4 mg, fasted, mean, read-out: t1/2 (converted)) was 16.9 h, the AUC(0-inf) ([4]; 8 mg, fasted, mean) was 2260 ng·h/mL and the AUC(0-t) ([4]; 8 mg, fasted, mean) was 2150 ng·h/mL. It also gave a Cmax ([4]; 8 mg, fasted, mean) of 212 ng/mL, a Tmax ([4]; 8 mg, fasted, mean, read-out: Tmax) of 0.92 h and a half-life ([4]; 8 mg, fasted, mean, read-out: t1/2 (converted)) of 17 h. It also gave an AUC(0-inf) ([4]; 15 mg, fasted, mean) of 4400 ng·h/mL, an AUC(0-t) ([4]; 15 mg, fasted, mean) of 3520 ng·h/mL and a Cmax ([4]; 15 mg, fasted, mean) of 385 ng/mL. For the same compound, the Tmax ([4]; 15 mg, fasted, mean, read-out: Tmax) was 1.04 h, the half-life ([4]; 15 mg, fasted, mean, read-out: t1/2 (converted)) was 16.8 h and the AUC(0-inf) ([4]; 20 mg, fasted, mean) was 5910 ng·h/mL. For the same compound, the AUC(0-t) ([4]; 20 mg, fasted, mean) was 5590 ng·h/mL, the Cmax ([4]; 20 mg, fasted, mean) was 590 ng/mL and the Tmax ([4]; 20 mg, fasted, mean, read-out: Tmax) was 1 h. For the same compound, the half-life ([4]; 20 mg, fasted, mean, read-out: t1/2 (converted)) was 15.9 h, the Tmax ([4]; across all fasted dose levels, read-out: mean Tmax) was ≤ 1 h and the half-life ([4]; over the 4- to 20-mg dose range, read-out: terminal elimination half-life) was 12 to 17 h. The “Cmax and AUC vs dose” value ([4]; over the dose range studied) was “dose-proportional”, the “respiratory function (respiratory rate, tidal volume, minute ventilation, PenH)” value (rats; 15, 75, and 225 mg/kg oral) was “respiratory stimulation” and the “respiratory function at end of 6-h monitoring period” value (rats; ≥75 mg/kg oral) was “remained altered”.
